Experiment: log P determination
Format: physicochemical
Settings: pH 2.7

- logP: 1.45
SMILES: Cn1nnnc1C(=NO)c1ccccc1 [Example 1, sodium {[(1-methyl-1H-tetrazol-5-yl)(phenyl)methylene]amino}oxidanide]
